Measurements: the supplement of paper PMC4862054
Where “and” joins values, the source holds several entries; their conditions need not be identical. Equal entries are not always repeated.

Tests used:
HCC1143 = assay: normalised viability (% of control), CellTiter-Blue; higher = more viable cells (about 100 = DMSO control); settings: incubation time: 72 h
Experimental: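 DSRT, CellTiter-Blue viability, 72 h incubation. Signal is normalised to DMSO and benzethonium chloride controls. Value is the normalised response at dose 3.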

MDA-MB-231 = assay: normalised response (% of control), CellTiter-Glo; higher = more viable cells (100 = DMSO, 0 = benzethonium chloride kill control); settings: incubation time: 72 h
How it was run: (§1)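 Every value is a normalised signal taken at one concentration of a dilution series. Compound was placed in 384-well plates at 5 concentrations in 10-fold steps over a compound-specific 10,000-fold range, and 20 µl of breast cancer cell suspension was seeded onto it. After 72 h, CellTox Green fluorescence (485/520 nm) was measured first and CellTiter-Glo luminescence second, following 10 min at room temperature. Each plate was scaled to 0.1 % DMSO (100) and a positive kill control (0).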

MCF-10A = assay: as above; settings: incubation time: 72 h
How it was run: as §1

MDA-MB-436 = assay: as above; settings: incubation time: 72 h
How it was run: as §1

DU-4475 = assay: as above; settings: incubation time: 72 h
How it was run: as §1

MDA-MB-453 = settings: 72 h
How it was run: (§2)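 To measure viability, fluorescence at 560/590 nm was read after 2.5 µl CellTiter-Blue had been added for 2 h at 37 °C. Cells from breast cancer lines had been seeded in 20 µl suspension onto 384-well plates pre-loaded with compound dissolved in 5 µl medium and kept for 72 h. EC50 comes from a fitted percent-inhibition dose-response curve censored at the highest concentration, after per-plate normalisation to vehicle and a positive kill control, Z'-factor checks, and removal of rows with zero drug sensitivity score.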

HDQ-P1 = settings: 72 h
How it was run: as §2

CAL-85-1 = settings: 72 h
How it was run: as §2

SMILES | normalised response (MDA-MB-231) [%] | normalised response (MCF-10A) [%] | normalised response (MDA-MB-436) [%] | normalised response (DU-4475) [%] | also measured
Cc1cccc(-c2nn3c(c2-c2ccnc4ccc(C(N)=O)cc24)CCC3)n1 | – | – | – | – | normalised viability (HCC1143; 10 nM): 91%
Nc1nc(=O)c2c([nH]1)NCC(CNc1ccc(C(=O)N[C@@H](CCC(=O)O)C(=O)O)cc1)N2C=O (mixture of isomers) [Folinic acid] | – | – | – | – | normalised viability (HCC1143; 9.9 nM): 86.1%
CCC/C=C/C=C/C(=O)O[C@H]1/C(=C/C(=O)OC)C[C@H]2C[C@H]([C@@H](C)O)OC(=O)C[C@H](O)C[C@@H]3C[C@H](OC(C)=O)C(C)(C)[C@](O)(C[C@@H]4C/C(=C/C(=O)OC)C[C@H](/C=C/C(C)(C)[C@]1(O)O2)O4)O3 [Bryostatin 1] (100 nM) | 93.1 | 95.7 | 111 | 97.4 | –
CO[C@@H](C(=O)N1Cc2[nH]nc(NC(=O)c3ccc(N4CCN(C)CC4)cc3)c2C1)c1ccccc1 [Danusertib] (10000 nM) | 42.7 | 17 | 57.5 | 37.3 | –
Cc1nc(Nc2ncc(C(=O)Nc3c(C)cccc3Cl)s2)cc(N2CCN(CCO)CC2)n1 [Dasatinib] (1000 nM) | 34.1 | 24.3 | 91.9 | 95.5 | –
O=S(=O)(c1cccc2cnccc12)N1CCCNCC1 [Fasudil] | – | – | – | – | normalised viability (HCC1143; 100 nM): 87.2%; EC50, CellTiter-Blue viability (MDA-MB-453): > 10000 nM
Cc1c(CN2CCN(C(=O)[C@H](C)O)CC2)sc2c(N3CCOCC3)nc(-c3cnc(N)nc3)nc12 [GDC-0980] (10000 nM) | 34.3 | 17.8 | 43.1 | 15.7 | –
Nc1cccc2c1CN(C1CCC(=O)NC1=O)C2=O (configuration not stated) [Lenalidomide] | – | – | – | – | normalised viability (HCC1143; 100 nM): 81.8% and 68%
Nc1cccc2c1CN(C1CCC(=O)NC1=O)C2=O (configuration not stated) [Lenalidomide] (10000 nM) | 103 | 102 | 91.3 | 99.3 | –
C[C@]12O[C@H](C[C@]1(O)CO)n1c3ccccc3c3c4c(c5c6ccccc6n2c5c31)CNC4=O [Lestaurtinib] (1000 nM) | 54.5 | 28.5 | 44.7 | 5.65 | –
O=C1c2c(O)ccc(O)c2C(=O)c2c(NCCNCCO)ccc(NCCNCCO)c21 [Mitoxantrone] (1000 nM) | 82.9 | 74.2 | 40.4 | 49.5 | –
Nc1ccccc1NC(=O)c1ccc(CNc2nccc(-c3cccnc3)n2)cc1 [Mocetinostat] (10000 nM) | 21.7 | 54.1 | 31.8 | 4.3 | –
COc1nc(N)nc2c1ncn2[C@@H]1O[C@H](CO)[C@@H](O)[C@@H]1O [Nelarabine] (10000 nM) | 94.3 | 86.2 | 90.1 | 97.8 | –
Cc1ccc(Nc2nccc(N(C)c3ccc4c(C)n(C)nc4c3)n2)cc1S(N)(=O)=O [Pazopanib] | – | – | – | – | normalised viability (HCC1143; 100 nM): 85.8%; EC50, CellTiter-Blue viability (HDQ-P1): > 10000 nM; EC50, CellTiter-Blue viability (MDA-MB-453): 608 nM
Cc1ccc(Nc2nccc(N(C)c3ccc4c(C)n(C)nc4c3)n2)cc1S(N)(=O)=O [Pazopanib] (10000 nM) | 102 | 102 | 106 | 104 | –
O=C(CCBr)N1CCN(C(=O)CCBr)CC1 [Pipobroman] | – | – | – | – | normalised viability (HCC1143; 100 nM): 87.8%; EC50, CellTiter-Blue viability (MDA-MB-453): 6140 nM
O=C(CCBr)N1CCN(C(=O)CCBr)CC1 [Pipobroman] (10000 nM) | 101 | 104 | 95 | 101 | –
c1cc(CN2CCCNCCNCCCNCC2)ccc1CN1CCCNCCNCCCNCC1 [Plerixafor] | – | – | – | – | normalised viability (HCC1143; 25 nM): 83.4%
C[C@]12C=CC(=O)C=C1CC[C@@H]1[C@@H]2[C@@H](O)C[C@@]2(C)[C@H]1CC[C@]2(O)C(=O)CO [Prednisolone] | – | – | – | – | normalised viability (HCC1143; 100 nM): 97.8%; EC50, CellTiter-Blue viability (MDA-MB-453): 171 nM
C[C@]12C=CC(=O)C=C1CC[C@@H]1[C@@H]2[C@@H](O)C[C@@]2(C)[C@H]1CC[C@]2(O)C(=O)CO [Prednisolone] (10000 nM) | 151 | 96.4 | 104 | 104 | –
CNC(=O)c1cc(Oc2ccc(NC(=O)Nc3ccc(Cl)c(C(F)(F)F)c3)cc2)ccn1 [Sorafenib] | – | – | – | – | normalised viability (HCC1143; 10 nM): 101% and 80.6%; EC50, CellTiter-Blue viability (CAL-85-1): 159 nM
CNC(=O)c1cc(Oc2ccc(NC(=O)Nc3ccc(Cl)c(C(F)(F)F)c3)cc2)ccn1 [Sorafenib] (1000 nM) | 108 | 118 | 120 | 98.3 | –
CCN(CC)CCNC(=O)c1c(C)[nH]c(/C=C2\C(=O)Nc3ccc(F)cc32)c1C [Sunitinib] | – | – | – | – | EC50, CellTiter-Blue viability (HDQ-P1): 721 nM
CCN(CC)CCNC(=O)c1c(C)[nH]c(/C=C2\C(=O)Nc3ccc(F)cc32)c1C [Sunitinib] (1000 nM) | 102 | 66.3 | 93.7 | 94.2 | –
